The values that follow come from PubChem BioAssay (NCI).

In general, TGI refers to the concentration giving total growth inhibition. Usually GI50 stands for the concentration giving 50% growth inhibition.

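Dose response: 5 concentrations. Exposure: 48 h. Format: 96-well plates. Endpoint: linear interpolation; highest concentration if not reached. GI50 is the concentration that inhibits growth by half. TGI denotes the concentration required for complete inhibition of growth.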

Some test systems named below: OVCAR-4 ovarian; SNB-19 CNS; A549 NSCLC; HOP-62 NSCLC; NCI-H460 lung; TK-10 renal; UO-31 renal; SK-MEL-28 melanoma; SF-539 CNS; OVCAR-8 ovarian.
What all share (assay): DTP human tumour cell line panel, 48 h

As for `O=C(NCCCCNCCCNC(=O)OCc1ccccc1)OCc1ccccc1`, the TGI in the test on OVCAR-4 ovarian was above 100 µM; in the test with SNB-19 CNS, above 100 µM; in the test with A549 NSCLC, above 100 µM; with HOP-62 NSCLC, above 100 µM; in the test on NCI-H460 lung, 69 µM; with TK-10 renal it was above 100 µM. In addition, the TGI with UO-31 renal was found to be 93.1 µM; with SK-MEL-28 melanoma it was 40 µM; in the test with SF-539 CNS, 43.1 µM; in the test with OVCAR-8 ovarian it was 67.1 µM.
Turning to `c1cc2ccc1CNCCN1CCNCc3ccc(cc3)Oc3ccc(cc3)CNCCN(CCNCc3ccc(cc3)O2)CCNCc2ccc(cc2)Oc2ccc(cc2)CNCC1`, the GI50 in the test with OVCAR-4 ovarian was 1.79 µM; in the test on HOP-62 NSCLC, 1.51 µM; in the test on NCI-H460 lung, 1.71 µM; with TK-10 renal, 1.62 µM; with UO-31 renal, 11.3 µM; with SK-MEL-28 melanoma it was 1.75 µM. In addition, the GI50 in the test on SF-539 CNS is 1.44 µM. Besides, the TGI with OVCAR-4 ovarian came to 3.34 µM; in the test with HOP-62 NSCLC, 2.96 µM; in the test on NCI-H460 lung, 3.27 µM; with TK-10 renal it was 3.45 µM; with UO-31 renal, 26.4 µM; in the test with SK-MEL-28 melanoma, 3.21 µM. Moreover, the TGI in the test with SF-539 CNS was determined as 2.76 µM.
In the case of `COC(=O)C[C@H](CCSC)NC(=O)C[C@H](CCSC)NC(=O)C[C@H](CCSC)NC(=O)OC(C)(C)C`, the TGI in the test on OVCAR-4 ovarian is 55.9 µM; in the test on SNB-19 CNS, 51.5 µM; in the test on A549 NSCLC, above 100 µM; in the test with HOP-62 NSCLC, above 100 µM; in the test with NCI-H460 lung, above 100 µM; in the test with TK-10 renal, 42.2 µM. Further, the TGI is above 100 µM in the test with UO-31 renal, above 100 µM with SK-MEL-28 melanoma, 54.1 µM in the test on SF-539 CNS and above 100 µM in the test on OVCAR-8 ovarian.
For `Nc1ccc(-c2nc3ccccc3s2)cc1`, the TGI with OVCAR-4 ovarian worked out at 35.6 µM; in the test on SNB-19 CNS it was 61.5 µM; in the test with A549 NSCLC, 63.2 µM; with HOP-62 NSCLC, 60.3 µM; with NCI-H460 lung, 43.1 µM; in the test with TK-10 renal, 42.3 µM. Moreover, the TGI was determined as 28.9 µM in the test with UO-31 renal, 33 µM in the test on SK-MEL-28 melanoma, 45.1 µM in the test on SF-539 CNS and 17.7 µM in the test on OVCAR-8 ovarian.
For the compound `COC(=O)[C@@H]1O[C@]12[C@@H](CO[Si](C)(C)C(C)(C)C)O[C@@H](n1cc(C)c(=O)[nH]c1=O)[C@@H]2O[Si](C)(C)C(C)(C)C`, the TGI in the test on OVCAR-4 ovarian is above 100 µM; with SNB-19 CNS it was 26 µM; in the test with A549 NSCLC, 64 µM; in the test on HOP-62 NSCLC it was 70.7 µM; with NCI-H460 lung, above 100 µM; in the test on TK-10 renal it was above 100 µM. The TGI is 38.5 µM with SK-MEL-28 melanoma, 75.3 µM with SF-539 CNS and 53.4 µM in the test with OVCAR-8 ovarian.
As for `CC1(O)C(=O)OC2CC([C@]3(O)CCC4[C@@H]5C[C@H]6O[C@]67[C@@H](O)C=CC(=O)[C@]7(C)C5CC[C@@]43C)C1(C)C2` (some centres not stated), the TGI in the test with OVCAR-4 ovarian is 26.5 µM; in the test with SNB-19 CNS, above 100 µM; in the test with A549 NSCLC it was above 100 µM; in the test on HOP-62 NSCLC, above 100 µM; with NCI-H460 lung, above 80.5 µM; with TK-10 renal it was 23.2 µM. Further, the TGI with UO-31 renal is above 85.3 µM; in the test on SK-MEL-28 melanoma, 26 µM; in the test with SF-539 CNS, 44.5 µM; with OVCAR-8 ovarian it was above 100 µM.
Turning to `O=C(NCc1cccnc1)C(=O)NCc1cccnc1`, the TGI in the test with OVCAR-4 ovarian, in the test with SNB-19 CNS, in the test with A549 NSCLC, with HOP-62 NSCLC, with NCI-H460 lung and with TK-10 renal was above 100 µM each time. Besides, the TGI with UO-31 renal, in the test with SK-MEL-28 melanoma, in the test with SF-539 CNS and in the test on OVCAR-8 ovarian was above 100 µM throughout.
With `COC(=O)C1=C(C)NC2(C)OC(C)(O)C(C(C)=O)C12C(C)=O` (configuration not stated), the TGI with OVCAR-4 ovarian, in the test on SNB-19 CNS, in the test with A549 NSCLC, in the test with HOP-62 NSCLC, in the test on NCI-H460 lung and in the test on TK-10 renal was above 100 µM throughout. The TGI with SK-MEL-28 melanoma was above 100 µM; in the test on SF-539 CNS it was 57.5 µM; in the test with OVCAR-8 ovarian, above 100 µM.
Consider `CCOC(=O)CCC(C(=O)OCC)n1nnc2cc(Nc3c(C)[n+]([O-])c4ccc(Cl)cc4[n+]3[O-])ccc21` (configuration not stated), for which the TGI in the test on OVCAR-4 ovarian, in the test on SNB-19 CNS, in the test on A549 NSCLC, with HOP-62 NSCLC, with NCI-H460 lung and with TK-10 renal was above 100 µM throughout. For the same compound, the TGI in the test with UO-31 renal, with SF-539 CNS and with OVCAR-8 ovarian was above 100 µM each time.
Consider `Cn1c(=O)c2sc3cc4c(cc3c2c2ccccc21)sc1c(=O)n(C)c2ccccc2c14`, for which the TGI in the test with OVCAR-4 ovarian is above 100 µM; in the test with A549 NSCLC, above 100 µM; in the test on HOP-62 NSCLC it was 42.3 µM; in the test with NCI-H460 lung it was above 100 µM; with TK-10 renal, above 100 µM; in the test on UO-31 renal it was above 100 µM. Also, the TGI with SK-MEL-28 melanoma, with SF-539 CNS and in the test with OVCAR-8 ovarian was above 100 µM throughout.
Take `O=C(C=P(c1ccccc1)(c1ccccc1)c1ccccc1)c1ccc(-c2ccc(F)cc2F)cc1`: the TGI with OVCAR-4 ovarian is 9.96 µM; in the test with SNB-19 CNS, 20.6 µM; in the test with A549 NSCLC, 11.4 µM; with HOP-62 NSCLC, 15.5 µM; with NCI-H460 lung it was 4.09 µM; in the test on TK-10 renal, 7.2 µM. The TGI in the test on UO-31 renal was 4.08 µM; in the test with SK-MEL-28 melanoma, 8.14 µM; with SF-539 CNS, 10.8 µM.
Turning to `C=C(C(=O)OC)[C@H]1CC/C(C)=C/CC/C(C)=C/CC[C@@]2(C)O[C@@H]2C1`, the TGI was above 100 µM in the test with OVCAR-4 ovarian; above 100 µM with SNB-19 CNS; 37.4 µM with A549 NSCLC; 42.5 µM in the test with HOP-62 NSCLC; 59 µM in the test on TK-10 renal; 55 µM with UO-31 renal. The TGI in the test on SK-MEL-28 melanoma is above 100 µM; in the test on SF-539 CNS, 32.2 µM; in the test on OVCAR-8 ovarian, 31.4 µM.
Take `COc1cc(S(=O)(=O)N/N=C/c2cc(Br)c(O)c(OC)c2)c(OC)cc1NC(C)=O`: the TGI with OVCAR-4 ovarian, in the test on SNB-19 CNS, with A549 NSCLC, in the test with HOP-62 NSCLC, in the test on TK-10 renal and with UO-31 renal was above 100 µM each time. Also, the TGI in the test on SK-MEL-28 melanoma is above 100 µM; in the test with SF-539 CNS, 41.8 µM; in the test on OVCAR-8 ovarian, above 100 µM.
